For this assay, the system named is sporozoites of Eimeria tenella. The assay can be described thus: Viability of Eimeria tenella sporozoites after 24 hours incubation with test compound (trypan blue exclusion). In kind it is cell-based. To be noted: for inhibition at 100 ppm: Eimeria tenella, read-out: percentage inhibition (inhibitory or destructive effect on the sporozoites); for percentage inhibition (effectiveness): concentration of 10 ppm. As to the method:
The antiparasitic properties of the following compounds were tested: • a capsicum oleoresin (Capsicum frutescens pigment) containing 6% by weight of a mixture of capsaicin and dihydrocapsaicin; • carvacrol; • cinnamaldehyde; • curcumin; • anethole; • PTS (according to the invention); • PTSO (according to the invention); and • an extract (according to the invention) called “Garlicon 40” containing […] of organosulfur compounds characteristic of garlic/onion, 6.7% by weight of PTS and 34.3% by weight of PTSO.
A first series of samples consisting of an aqueous solution containing 100 ppm of the abovementioned test compounds, and a second series of samples containing only 10 ppm of these compounds, were prepared.
Next, in order to be able to test the effect of the abovementioned compounds on Eimeria, the following was carried out. Freshly sporulated oocysts were obtained from Eimeria tenella and were stored at 4° C. in a 2.5% (weight/volume) potassium dichromate solution until use.
The oocysts were then sterilized with bleach before isolating sporozoites. The walls of the oocysts were mechanically destroyed for 5 to 7 seconds using a ball mill having balls of 0.5 mm.
The product obtained was then incubated for 45 minutes at 41° C. in a PBS buffer solution containing 0.014 mol/l of taurodeoxycholic acid and 0.25% by weight of trypsin in order to release the sporozoites.
The fluids released by the excystation were filtered and the sporozoites collected were washed three times with RPMI-1640 medium with stirring at 2100 revolutions per minute for 10 minutes at 4° C.
Solutions of 10^6 sporozoites per milliliter were then prepared, and were left to incubate with the same volume of sample of test compound for 24 hours.
The viability of the sporozoites was then measured according to the trypan blue exclusion method.
The results can be seen on the appended single figure, in which the numbers located above each column indicate the percentage inhibition by the corresponding compound and the numbers which follow the name of the compound indicate its concentration.
A measurement was also carried out with a control solution (free of test compound) called “Control” on the figure.

[1] abbreviates: concentration of 100 ppm, 24 hours incubation.

Read-outs that look alike come from different tables or passages of the source.

Usually inhibition stands for the drop in the measured response relative to a control, in per cent. Take `O=CC=Cc1ccccc1` [cinnamaldehyde]: the inhibition at 100 ppm under setting [1] was not below 74%. Still for that read-out and setting: for `COc1cc(/C=C/C(=O)CC(=O)/C=C/c2ccc(O)c(OC)c2)ccc1O` [curcumin] the value was not below 74%.

In the case of `Cc1ccc(C(C)C)cc1O` [carvacrol], the inhibition at 100 ppm (24 h) was not below 74%. As for `CCCS[S+]([O-])CCC` (stereo not drawn) [PTS, di(n-propyl) thiosulfinate], the “percentage inhibition (effectiveness)” value (24 hours incubation) was found to be 87%. For the molecule `CCCSS(=O)(=O)CCC` [PTSO, di(n-propyl) thiosulfonate], the “effectiveness at 10 ppm compared with 100 ppm” value (10 ppm versus 100 ppm) is reported as “higher effectiveness at 10 ppm than at 100 ppm”. Further, under “24 hours incubation”, the “percentage inhibition (effectiveness)” value stood at 61%.

For the origin of these results see patent publication US20130079402A1, “Use of at Least One Dialkyl Thiosulfonate or Thiosulfinate for Reducing the Number of Apicomplexa in an Animal” (Pancosma S.A., priority 2010, published 2013).
